In patent publication US20100143381A1, “LYSOPHOSPHATIDIC ACID RECEPTOR TARGETING FOR LUNG DISEASE” (priority 2007, published 2010):
“Also recorded” adds a separate entry of the source.

What was measured:
[1] = tested on: primary mouse lung fibroblasts; assay: Fibroblast chemotaxis induced by BAL from mice on Day 5 post-bleomycin (modified Boyden chamber); type: cell-based
Description: Bronchoalveolar lavage (BAL) samples were obtained by lung lavage using two 0.5 ml aliquots of PBS. These samples were then provided for analysis of: i) chemoattractant activity, ii) LPA; iii) total protein; and iv) D-dimer concentrations. These BAL samples were centrifuged at 3000×g for 20 min at 4° C., and the supernatants transferred to siliconized low-binding eppendorf tubes (PGC Scientifics) for subsequent analysis.
(§1) Lungs from unchallenged C57BL/6, LPA1^−/− or littermate wild type mice were digested for 45 minutes at 37° C. in DMEM with 0.14 U/ml Liberase Blenzyme 3 (Roche), and 60 μg/ml DNAse 1 (Sigma), passed through a 70 μm filter, centrifuged at 540×g at 4° C. and plated in tissue culture flasks in DMEM with 15% (vol/vol) fetal bovine serum (FBS, Sigma). Cells were passaged when subconfluent following harvest with trypsin-EDTA (Cellgro®). To ensure that cultures contained almost purely fibroblasts, cells were used for experiments at passage 3 or higher.
After being serum-starved in DMEM without FBS overnight, subconfluent primary lung fibroblasts were harvested with non-enzymatic Cell Dissociation Solution (Sigma) to avoid possible proteolysis of surface chemoattractant receptors by trypsin. Harvested cells, at 5.0×10^5 cells/ml in 50 μl of DMEM, were placed in the top of a 48-well modified Boyden microchemotaxis chamber (NeuroProbe). Duplicate 30 μl aliquots of either: i) 18:1 LPA (Avanti Polar Lipids) or PDGF-BB (R&D Systems) in DMEM with 0.1% fatty acid-free bovine serum albumin (Sigma); or ii) BAL, or BAL fractions, diluted 1:4 in DMEM, were placed in the bottom wells of the chamber and separated from the cells by a 8-μm-pore, polyvinylpyrrolidone-free polycarbonate filter (Osmonics) that had been coated with fibronectin (Sigma). The apparatus was incubated at 37° C. and 5% CO2 for 3 hours, and cells migrating across the filter and adhering to the bottom side of the filter were stained with a commercially modified Wright's stain (Hema 3 stain set, Fisher Diagnostics) and counted, after cells remaining on the top side of the filter had been scraped off. […]

[2] = tested on: primary mouse lung fibroblasts; assay: PDGF-induced fibroblast chemotaxis (specificity control); type: cell-based
Description: as §1
(§2) After being serum-starved in DMEM without FBS overnight, subconfluent primary lung fibroblasts were harvested with non-enzymatic Cell Dissociation Solution (Sigma) to avoid possible proteolysis of surface chemoattractant receptors by trypsin. Harvested cells, at 5.0×10^5 cells/ml in 50 μl of DMEM, were placed in the top of a 48-well modified Boyden microchemotaxis chamber (NeuroProbe). Duplicate 30 μl aliquots of either: i) 18:1 LPA (Avanti Polar Lipids) or PDGF-BB (R&D Systems) in DMEM with 0.1% fatty acid-free bovine serum albumin (Sigma); or ii) BAL, or BAL fractions, diluted 1:4 in DMEM, were placed in the bottom wells of the chamber and separated from the cells by a 8-μm-pore, polyvinylpyrrolidone-free polycarbonate filter (Osmonics) that had been coated with fibronectin (Sigma). The apparatus was incubated at 37° C. and 5% CO2 for 3 hours, and cells migrating across the filter and adhering to the bottom side of the filter were stained with a commercially modified Wright's stain (Hema 3 stain set, Fisher Diagnostics) and counted, after cells remaining on the top side of the filter had been scraped off. Data from these experiments is presented as chemotactic indices, i.e. the number of cells migrating in response to BAL divided by the number of cells migrating to media controls.

[3] = tested on: human fetal lung fibroblasts (HFL1 cells); assay: Fibroblast chemotaxis induced by BAL samples from human IPF patients; type: cell-based; details: 1 μM Ki16425; FIG. 8d
Description: After being serum-starved in DMEM without FBS overnight, subconfluent primary lung fibroblasts were harvested with non-enzymatic Cell Dissociation Solution (Sigma) to avoid possible proteolysis of surface chemoattractant receptors by trypsin. Harvested cells, at 5.0×10^5 cells/ml in 50 μl of DMEM, were placed in the top of a 48-well modified Boyden microchemotaxis chamber (NeuroProbe). […] The apparatus was incubated at 37° C. and 5% CO2 for 3 hours, and cells migrating across the filter and adhering to the bottom side of the filter were stained with a commercially modified Wright's stain (Hema 3 stain set, Fisher Diagnostics) and counted, after cells remaining on the top side of the filter had been scraped off. […]
BAL samples were recovered from IPF patients and normal controls following instillation of sterile 0.9% saline by flexible fiberoptic bronchoscopy, performed both at the Instituto Nacional de Enfermedades Respiratorias and the Massachusetts General Hospital (MGH), as previously described. […] Cells growing at passage 3 or higher were analyzed as primary human BAL fibroblasts.

LPA1, LPA3, LPA2 = details: literature (Ohta et al. 2003; Heise et al. 2001); cited from earlier work
[4] = tested on: sphingosine 1-phosphate receptors; details: literature (Ohta et al. 2003); cited from earlier work
[5] = tested on: LPA-activated chloride channel; details: elevated levels; human lung fibroblasts; literature (Yin et al. 2005); cited from earlier work
[6] = tested on: primary mouse lung fibroblasts; assay: LPA-induced fibroblast chemotaxis; type: cell-based; details: for effect of albumin on LPA-induced fibroblast chemotaxis: 0.1% fatty acid-free BSA, C57Bl/6 lung fibroblasts, FIG. 9b
Description: as §1, §2

Cc1noc(-c2ccc(CSCCC(=O)O)cc2)c1NC(=O)OC(C)c1ccccc1Cl (stereo not drawn) [Ki16425]
effect on fibroblast chemotaxis induced by D5 post-bleomycin BAL ([1]; 1 μM Ki16425, C57BL fibroblasts, FIG. 5b): significantly inhibited | effect on PDGF-induced fibroblast chemotaxis ([2]; 1 μM Ki16425, 10^−8 or 10^−7 M PDGF, FIG. 5b): not affected; also recorded: similar; also recorded: did not affect | effect on chemotaxis of HFL1 cells to BAL samples from IPF patients [3]: reduced chemotaxis; also recorded: significantly inhibited | receptor subtype rank order of inhibition of LPA-induced responses (LPA1, LPA3, LPA2): LPA1≧LPA3>>LPA2 | effects on cellular responses mediated by sphingosine 1-phosphate receptors [4]: without appreciable effects

CCCCCCCC/C=C\CCCCCCCC(=O)N[C@@H](COP(=O)(O)O)Cc1ccc(OCc2ccccc2)cc1 [VPC12249]
effect on fibroblast chemotaxis induced by D5 post-bleomycin BAL ([1]; 100 μM VPC12249, C57BL/6 fibroblasts, FIG. 10): reduced chemotaxis; also recorded: significantly inhibited | effect on PDGF-induced fibroblast chemotaxis ([2]; 100 μM VPC12249, PDGF 10^−9 M, FIG. 10): did not affect; also recorded: similar; also recorded: not affected | receptor subtype rank order of inhibition of LPA-induced responses (LPA1, LPA3, LPA2): LPA1≧LPA3>>LPA2

dioctyl-glycerol pyrophosphate
effect on activation of LPA-activated chloride channel [5]: blocked

fatty acid-free BSA: fatty acid-free bovine serum albumin (Sigma)
effect of albumin on LPA-induced fibroblast chemotaxis [6]: potentiated | effect of albumin on LPA-induced fibroblast chemotaxis ([6]; listed as methanol extracted fatty acid-free albumin): significantly potentiated

lysophosphatidic acid [LPA]
fibroblast chemotactic activity of LPA ([6]; LPA bound to albumin, FIG. 1h): chemotactic; also recorded: potent fibroblast chemoattractant

pertussis toxin [PTX]
effect of PTX pretreatment on BAL-induced fibroblast chemotaxis ([1]; PTX-pretreatment of fibroblasts, D5 BAL, FIG. 1b): inhibited chemotaxis; also recorded: completely inhibited | effect of PTX pretreatment on PDGF-induced fibroblast chemotaxis ([2]; PTX-pretreatment of fibroblasts, FIG. 1b, 1i): not inhibited | effect of PTX pretreatment on LPA-induced fibroblast chemotaxis ([6]; PTX-pretreatment, LPA 10^−9-10^−7 M, FIG. 1i): inhibited chemotaxis; also recorded: reduced
